From patent US7462625B2, “Gonadotropin-releasing hormone receptor antagonists and methods relating thereto” (Neurocrine Biosciences, Inc., priority 2000, dated 2008)
pKi: −log10 of the molar value.

Molecular target: T1, GnRH receptor (Homo sapiens, UniProt P30968)
T1 construct: expressed in transfected cells
T1 sequence (P30968 1-328): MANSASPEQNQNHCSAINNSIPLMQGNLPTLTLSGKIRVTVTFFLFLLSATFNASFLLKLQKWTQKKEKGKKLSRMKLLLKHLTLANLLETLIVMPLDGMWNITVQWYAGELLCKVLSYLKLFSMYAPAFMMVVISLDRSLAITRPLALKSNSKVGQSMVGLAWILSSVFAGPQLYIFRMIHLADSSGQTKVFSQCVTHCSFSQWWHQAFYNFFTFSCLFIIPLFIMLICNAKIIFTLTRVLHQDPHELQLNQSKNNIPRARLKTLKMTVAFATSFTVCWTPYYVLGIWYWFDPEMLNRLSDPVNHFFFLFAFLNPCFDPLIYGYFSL
Assay: GnRH receptor membrane binding assay
Details: not given
Protocol: Radio-Iodination of GnRH Peptide
The GnRH analog is labeled by the chloramine-T method. […] The reaction is stopped by the addition of 60 μg sodium metabisulfite and the free iodine is removed by passing the iodinated mixture through a C-8 Sep-Pak cartridge (Millipore Corp., Milford, Mass.). The peptide is eluted with a small volume of 80% acetonitrile/water. […] The purified radioactive peptide is stored in 0.1% BSA/20% acetonitrile/0.1% TFA at −80° C. and can be used for up to 4 weeks.
GnRH Receptor Membrane Binding Assay
Cells stably, or transiently, transfected with GnRH receptor expression vectors are harvested, resuspended in 5% sucrose and homogenized using a polytron homogenizer (2×15 sec). Nucleii are removed by centrifugation (3000×g for 5 min.), and the supernatant centrifuged (20,000×g for 30 min, 4° C.) to collect the membrane fraction. The final membrane preparation is resuspended in binding buffer (10 mM Hepes (pH 7.5), 150 mM NaCl, and 0.1% BSA) and stored at −70° C. Binding reactions are performed in a Millipore MultiScreen 96-well filtration plate assembly with polyethylenimine coated GF/C membranes. […] The reaction is terminated after 90 minutes by application of vacuum and washing (2×) with phosphate buffered saline. Bound radioactivity is measured using 96-well scintillation counting (Packard Topcount) or by removing the filters from the plate and direct gamma counting. Ki values are calculated from competition binding data using non-linear least squares regression using the Prism software package (GraphPad Software).

pKi, > 7.00:
COc1cccc(-c2c(C)n(Cc3c(F)cccc3F)c(=O)n(CCN(C)CCc3ccccn3)c2=O)c1F [9-24]

Same assay, conditions: GnRH receptor membrane binding assay, [125I]-labeled GnRH peptide; read-out: Ki

pKi, > 7.00:
Cc1ccc(-c2c(C)n(Cc3c(F)cccc3F)c(=O)n(C[C@H](N)c3ccccc3)c2=O)s1 [8-106], Cc1c(-c2cccs2)c(=O)n(C[C@H](N)c2ccccc2)c(=O)n1Cc1c(F)cccc1F [8-107], CCNC(=O)[C@@H]1CCCN1CCn1c(=O)c(-c2cccc(OC)c2)c(C)n(Cc2c(F)cccc2F)c1=O [9-3], COc1cccc(-c2c(C)n(Cc3c(F)cccc3F)c(=O)n(CCN3CCC[C@@H]3CO)c2=O)c1 [9-4], COc1cccc(-c2c(C)n(Cc3c(F)cccc3F)c(=O)n(CCN3CC[C@@H](NC(C)=O)C3)c2=O)c1 [9-7], COc1cccc(-c2c(C)n(Cc3c(F)cccc3F)c(=O)n(CC(C)NCCCOCC(C)C)c2=O)c1 (centres unmarked) [9-19], COc1cccc(-c2c(C)n(Cc3c(F)cccc3F)c(=O)n(CC3CCCN3)c2=O)c1 (centres unmarked) [9-26], Cc1c(-c2ccc(Oc3ccccc3)cc2)c(=O)n(CCNCc2cc(C(F)(F)F)cc(C(F)(F)F)c2)c(=O)n1Cc1c(F)cccc1F [9-32], Cc1c(-c2ccc(Oc3ccccc3)cc2)c(=O)n(CCN2CCN(Cc3ccc4c(c3)OCO4)CC2)c(=O)n1Cc1c(F)cccc1F [9-35], Cc1c(-c2ccc(Oc3ccccc3)cc2)c(=O)n(CCN2CCCC(C(N)=O)C2)c(=O)n1Cc1c(F)cccc1F (centres unmarked) [9-37], Cc1c(-c2ccc(Oc3ccccc3)cc2)c(=O)n(CCN(Cc2ccccc2)Cc2ccccc2)c(=O)n1Cc1c(F)cccc1F [9-39], Cc1c(-c2ccc(Oc3ccccc3)cc2)c(=O)n(CCN2CCN(c3cccc(Cl)c3)CC2)c(=O)n1Cc1c(F)cccc1F [9-40], Cc1c(-c2ccc(Oc3ccccc3)cc2)c(=O)n(CCN2CC[C@@H](NC(=O)C(F)(F)F)C2)c(=O)n1Cc1c(F)cccc1F [9-42], Cc1c(-c2ccccc2F)c(=O)n(CCN2CCN(c3cccc(Cl)c3)CC2)c(=O)n1Cc1c(F)cccc1F [9-56], Cc1c(-c2ccccc2F)c(=O)n(CCN2CCN(C(=O)OCc3ccccc3)CC2)c(=O)n1Cc1c(F)cccc1F [9-58], Cc1c(-c2ccc3c(c2)OCO3)c(=O)n(CCNCc2cc(C(F)(F)F)cc(C(F)(F)F)c2)c(=O)n1Cc1c(F)cccc1F [9-63], Cc1c(-c2ccc3c(c2)OCO3)c(=O)n(CCNCCN(C(C)C)C(C)C)c(=O)n1Cc1c(F)cccc1F [9-64], Cc1c(-c2ccc3c(c2)OCO3)c(=O)n(CCN2CCN(c3cccc(Cl)c3)CC2)c(=O)n1Cc1c(F)cccc1F [9-70], Cc1c(-c2ccc(C(C)C)cc2)c(=O)n(CCN2CCN(c3cccc(Cl)c3)CC2)c(=O)n1Cc1c(F)cccc1F [9-85], CCCN(CCn1c(=O)c(-c2ccc(C(C)C)cc2)c(C)n(Cc2c(F)cccc2F)c1=O)C(C)CC (centres unmarked) [9-86], Cc1c(-c2ccc3c(c2)OCCO3)c(=O)n(CCN2CCN(Cc3ccc4c(c3)OCO4)CC2)c(=O)n1Cc1c(F)cccc1F [9-95], Cc1c(-c2ccc3c(c2)OCCO3)c(=O)n(CCN2CC(C)OC(C)C2)c(=O)n1Cc1c(F)cccc1F (centres unmarked) [9-96], COc1cccc(-c2c(C)n(Cc3c(F)cccc3F)c(=O)n(CC(C)NCc3ccccn3)c2=O)c1 (centres unmarked) [9-109], CCC(C)NC(=O)[C@@H]1CCCN1CCn1c(=O)c(-c2cccc(OC)c2)c(C)n(Cc2c(F)cccc2F)c1=O (some centres unmarked) [9-112], Cc1c(-c2ccc(Oc3ccccc3)cc2)c(=O)n(CCNCC(F)(F)F)c(=O)n1Cc1c(F)cccc1F [9-138], Cc1c(-c2ccc(Oc3ccccc3)cc2)c(=O)n(CCNCCC(c2ccccc2)c2ccccc2)c(=O)n1Cc1c(F)cccc1F [9-140], Cc1c(-c2ccc(Oc3ccccc3)cc2)c(=O)n(CCNCc2cccc([N+](=O)[O-])c2)c(=O)n1Cc1c(F)cccc1F [9-142], Cc1c(-c2ccc(Oc3ccccc3)cc2)c(=O)n(CCNCc2ccc([N+](=O)[O-])cc2)c(=O)n1Cc1c(F)cccc1F [9-143], Cc1c(-c2ccc(Oc3ccccc3)cc2)c(=O)n(CCNCc2ccc(F)cc2C(F)(F)F)c(=O)n1Cc1c(F)cccc1F [9-145], Cc1c(-c2ccc(Oc3ccccc3)cc2)c(=O)n(CCN2CCN(c3ccccc3)CC2)c(=O)n1Cc1c(F)cccc1F [9-146], Cc1c(-c2ccccc2F)c(=O)n(CCNC2CCC(C)CC2)c(=O)n1Cc1c(F)cccc1F (centres unmarked) [9-149], Cc1c(-c2ccc3c(c2)OCO3)c(=O)n(CCNCC(F)(F)F)c(=O)n1Cc1c(F)cccc1F [9-164], Cc1c(-c2ccc3c(c2)OCCO3)c(=O)n(CCNCC(F)(F)F)c(=O)n1Cc1c(F)cccc1F [9-191], Cc1c(-c2ccc3c(c2)OCCO3)c(=O)n(CCN2CCN(c3ccccc3)CC2)c(=O)n1Cc1c(F)cccc1F [9-199], Cc1c(-c2ccc3c(c2)OCCO3)c(=O)n(CCN(CCC#N)Cc2cccnc2)c(=O)n1Cc1c(F)cccc1F [9-200], COc1ccccc1CCNCCn1c(=O)c(-c2ccc(Oc3ccccc3)cc2)c(C)n(Cc2c(F)cccc2F)c1=O [9-215], Cc1c(-c2ccc(Oc3ccccc3)cc2)c(=O)n(CCN[C@@H](C)c2ccc3ccccc3c2)c(=O)n1Cc1c(F)cccc1F [9-219], CCN(CC)CCn1c(=O)c(-c2ccc(Oc3ccccc3)cc2)c(C)n(Cc2c(F)cccc2F)c1=O [9-224], Cc1ccc(N2CCN(CCn3c(=O)c(-c4ccc(Oc5ccccc5)cc4)c(C)n(Cc4c(F)cccc4F)c3=O)CC2)cc1 [9-225], Cc1c(-c2ccccc2F)c(=O)n(CCNCCN(C)C)c(=O)n1Cc1c(F)cccc1F [9-227], COc1ccc(CCNCCn2c(=O)c(-c3ccccc3F)c(C)n(Cc3c(F)cccc3F)c2=O)cc1OC [9-229], Cc1c(-c2ccccc2F)c(=O)n(CCN(C)C)c(=O)n1Cc1c(F)cccc1F [9-237], CCCN1CCN(CCn2c(=O)c(-c3ccccc3F)c(C)n(Cc3c(F)cccc3F)c2=O)CC1 [9-240], Cc1c(-c2ccc3c(c2)OCO3)c(=O)n(CCNCCN(C)C)c(=O)n1Cc1c(F)cccc1F [9-242], COc1ccc(CCNCCn2c(=O)c(-c3ccc4c(c3)OCO4)c(C)n(Cc3c(F)cccc3F)c2=O)cc1OC [9-244], Cc1c(-c2ccc3c(c2)OCO3)c(=O)n(CCNCC2CC2)c(=O)n1Cc1c(F)cccc1F [9-245], Cc1c(-c2ccc3c(c2)OCO3)c(=O)n(CCN[C@@H](C)c2ccc3ccccc3c2)c(=O)n1Cc1c(F)cccc1F [9-247], CCN(CC)CCN(C)CCn1c(=O)c(-c2ccc3c(c2)OCO3)c(C)n(Cc2c(F)cccc2F)c1=O [9-249], CCN(CC)CCN(C)CCn1c(=O)c(-c2ccc(C(C)C)cc2)c(C)n(Cc2c(F)cccc2F)c1=O [9-263], Cc1c(-c2ccc3c(c2)OCCO3)c(=O)n(CCNCCN(C)C)c(=O)n1Cc1c(F)cccc1F [9-270], Cc1c(-c2ccc3c(c2)OCCO3)c(=O)n(CCN[C@@H](C)c2ccc3ccccc3c2)c(=O)n1Cc1c(F)cccc1F [9-275], Cc1ccc(N2CCN(CCn3c(=O)c(-c4ccc5c(c4)OCCO5)c(C)n(Cc4c(F)cccc4F)c3=O)CC2)cc1 [9-281], Cc1c(/C=C/c2ccccc2)c(=O)n(CCN(C)CCc2ccccn2)c(=O)n1Cc1c(F)cccc1F [9-287], COc1cccc(-c2c(C)n(Cc3c(F)cccc3F)c(=O)n(C[C@H](C)NCc3ccccc3)c2=O)c1F [9-304], COc1cccc(-c2c(C)n(Cc3c(F)cccc3F)c(=O)n(C[C@H](C)N(C)Cc3ccccc3)c2=O)c1F [9-305], COc1cccc(-c2c(C)n(Cc3c(F)cccc3F)c(=O)n([C@H](C)CNCc3ccccc3)c2=O)c1 [9-312], COc1cccc(-c2c(C)n(Cc3c(F)cccc3F)c(=O)n(C[C@@H](C)N(C)CCc3ccccn3)c2=O)c1 [9-318], Cc1c(-c2ccc3c(c2)OCO3)c(=O)n(CCNC2CCC(C)CC2)c(=O)n1Cc1c(F)cccc1F (centres unmarked) [9-320], Cc1c(-c2ccc3c(c2)OCO3)c(=O)n(CCN2CCN(c3cccc(C(F)(F)F)c3)CC2)c(=O)n1Cc1c(F)cccc1F [9-361], CCOC(=O)N1CCN(CCn2c(=O)c(-c3ccc4c(c3)OCO4)c(C)n(Cc3c(F)cccc3F)c2=O)CC1 [9-362], COc1cccc(-c2c(C)n(Cc3c(F)cccc3F)c(=O)n(CC(C)NC(C)C(C)C)c2=O)c1F (centres unmarked) [9-399]
